Read-outs that look alike come from different tables or passages of the source.
Legend:
Format in all cases: cell-based
[1] = tested on: Propionibacterium acnes ATCC 6919; assay: Antimicrobial Efficacy Test - Microcentrifuge Tube Method, P. acnes; conditions: for Log / cfu/ml / log reduction: 30 minute exposure
Description: (§1) For efficacy studies against Propionibacterium acnes, Staphylococcus aureus, and Escherichia coli 1% test sample suspensions [Sulfur (S) Sigma or Polymeric Sulfur (Sn) IS90 from Wuxi Wanli Chemical, China] were prepared as w/v in Butterfield's Phosphate Buffer. Serial dilutions of 1:10 were performed v/v for lower concentrations. Aliquots were then pipetted into microcentrifuge tube for exposure to test organism. Concentrations of 10% and 5% for testing against Aspergillus brasiliensis were weighed and diluted directly in microcentrifuge tubes. Each test organism was standardized to concentration of 10E6 cfu/ml. Test sample was inoculated as 1:10 (0.1 ml inoculum to 0.9 ml sample) for final concentration of 10E5 cfu/ml sample. Buffer control sample was included and used to calculate log reduction for each test sample. After inoculation, study tubes were placed at 37° C. (±2° C.), shaking at 1000 rpm for set exposure time (30 minutes, 1 hour or 3 hours). At completion of exposure time, each tube was centrifuged for 10 seconds to settle test material out of suspension. Aliquot of fluid was removed, serial diluted and plated for recovery of viable organisms. Each organism was plated on appropriate media and incubated at proper temperature and length of time before counting recoveries.

[2] = tested on: Staphylococcus aureus ATCC 6538; assay: Antimicrobial Efficacy Test - Microcentrifuge Tube Method, S. aureus; conditions: for Log / cfu/ml / log reduction: 60 minute exposure
Description: as §1

[3] = tested on: Escherichia coli ATCC 8739; assay: Antimicrobial Efficacy Test - Microcentrifuge Tube Method, E. coli; conditions: for Log / cfu/ml / log reduction: 30 minute exposure
Description: as §1

[4] = tested on: Aspergillus brasiliensis ATCC 16404; assay: Antimicrobial Efficacy Test - Microcentrifuge Tube Method, A. brasiliensis; conditions: for Log / cfu/ml / log reduction: 3 hour exposure
Description: as §1

[5] = tested on: IL-22-induced IL-8 cytokine release; assay: IL-22-induced IL-8 cytokine release in normal human epidermal keratinocytes
Description: The anti-inflammatory potential of polymeric sulfur (Sn) and of regular sulfur (S) were evaluated in-vitro in human primary epidermal cell cultures. Normal human epidermal keratinocytes were purchased from Promocell (Heidelberg, Germany). The cells were plated in 24-well tissue culture treated plates at a density of 30,000 cells/well in Lonza KGM-Gold Bullet Kit without hydrocortisone (Lonza, Walkersville, Md.). After 48 hours, cells were treated with the actives described below: Polymeric form of sulfur (IS-90, Wuxi Wanli Chemical, China) and the regular form of sulfur (Sigma-Aldrich, St Louis, Mo., USA) at indicated concentrations, either in the presence or absence of the pro-inflammatory cytokine IL-22 (R&D Systems, Minneapolis, Minn.) 20 ng/ml. Following the treatment period of 24 hrs, the cell culture media supernatants were collected and analyzed for IL-8 cytokine release using MILLIPLEX®MAP kit (Millipore Corp., Billerica, Mass.).

[6] = tested on: IL-1α pro-inflammatory cytokine release; assay: IL-1α cytokine release in human skin equivalents (EPI 200 HCF-PRF)
Description: The potential to induce the pro-inflammatory cytokine release IL1-a by either the polymeric sulfur (Sn) and of regular sulfur (S) were evaluated in human skin equivalents. Human skin equivalents (EPI 200 HCF-PRF), multilayer and differentiated epidermis consisting of normal human epidermal keratinocytes, were purchased from MatTek (Ashland, Mass.). Upon receipt, skin equivalents were incubated for 24 hours at 37° C. in maintenance medium without hydrocortisone. Equivalents were topically treated (0.1%, 1% and 10%) with either polymeric sulfur (IS-90, Wuxi Wanli Chemical, China) or regular sulfur (S, Sigma-Aldrich, St Louis, Mo., USA) in 70% ethanol/30% propylene glycol vehicle, and compared to either vehicle alone used as negative control, or to the 10 mM SDS used as positive control. Equivalents were incubated for 48 hours at 37° C. with maintenance medium then supernatants were analyzed for IL-1α pro-inflammatory cytokine release using MILLIPLEX®MAP kit (Millipore Corp., Billerica, Mass.).

IL-8 cytokine release = IL-8 cytokine release in normal human epidermal keratinocytes
Description: The irritation/inflammatory/mildness potential of polymeric sulfur (Sn) and of regular sulfur (S) were evaluated in-vitro in human primary cell cultures. Normal human epidermal keratinocytes were purchased from Promocell (Heidelberg, Germany). The cells were plated in 24-well tissue culture treated plates at a density of 30,000 cells/well in Lonza KGM-Gold BulletKit without hydrocortisone (Lonza, Walkersville, Md., USA). After 48 hours, cells were treated with the actives described below: Polymeric form of sulfur (Wuxi Wanli Chemical, China) and the regular form of sulfur (Sigma-Aldrich, St Louis, Mo.) at indicated concentrations for 24 hours, following which supernatants were collected and analyzed for IL-8 and IL-1α cytokine release using MILLIPLEX®MAP kit (Millipore Corp., Billerica, Mass.).

Question: With `S1SSSSSSS1` [S, Sulfur] as the molecule, how does the Log ([1]; 0.001%) read?
Answer: 5.3

Question: What about the cfu/ml ([1]; 0.001%) of the same molecule?
Answer: 2.0E+05 cfu/ml

Question: And the log reduction ([1]; 0.001%)?
Answer: 0.1

Question: And the Log ([1]; 0.01%)?
Answer: 5.3

Question: And the cfu/ml ([1]; 0.01%)?
Answer: 1.9E+05 cfu/ml

Question: And the log reduction ([1]; 0.01%)?
Answer: 0.1

Question: What about the Log ([1]; 0.1%) of the same molecule?
Answer: 5.3

Question: What about the cfu/ml ([1]; 0.1%) of the same molecule?
Answer: 1.8E+05 cfu/ml

Question: And the log reduction ([1]; 0.1%)?
Answer: 0.1

Question: What about the Log ([1]; 1% w/v) of the same molecule?
Answer: 5.2

Question: What about the cfu/ml ([1]; 1% w/v) of the same molecule?
Answer: 1.6E+05 cfu/ml

Question: And the log reduction ([1]; 1% w/v)?
Answer: 0.2

Question: What about the “antimicrobial efficacy, conclusion” value ([1]; at 0.01% or 0.001%) of the same molecule?
Answer: Neither form was efficacious

Question: What about the Log ([2]; 0.001%) of the same molecule?
Answer: 4.0

Question: And the cfu/ml ([2]; 0.001%)?
Answer: 9.1E+03 cfu/ml

Question: What about the log reduction ([2]; 0.001%) of the same molecule?
Answer: 1.4

Question: What about the Log ([2]; 0.01%) of the same molecule?
Answer: 4.0

Question: And the cfu/ml ([2]; 0.01%)?
Answer: 1.0E+04 cfu/ml

Question: What about the log reduction ([2]; 0.01%) of the same molecule?
Answer: 1.4

Question: And the Log ([2]; 0.1%)?
Answer: 3.5

Question: What about the cfu/ml ([2]; 0.1%) of the same molecule?
Answer: 3.0E+03 cfu/ml

Question: And the log reduction ([2]; 0.1%)?
Answer: 1.9

Question: What about the Log ([2]; 1% w/v) of the same molecule?
Answer: 5.3

Question: What about the cfu/ml ([2]; 1% w/v) of the same molecule?
Answer: 2.1E+05 cfu/ml

Question: What about the log reduction ([2]; 1% w/v) of the same molecule?
Answer: 0.1

Question: What about the “antimicrobial efficacy, conclusion” value ([2]; at 0.1%) of the same molecule?
Answer: the forms were equivalent

Question: And the Log ([3]; 0.001%)?
Answer: 6.1

Question: And the cfu/ml ([3]; 0.001%)?
Answer: 1.3E+06 cfu/ml

Question: What about the log reduction ([3]; 0.001%) of the same molecule?
Answer: 0.1

Question: What about the Log ([3]; 0.01%) of the same molecule?
Answer: 6.1

Question: And the cfu/ml ([3]; 0.01%)?
Answer: 1.3E+06 cfu/ml

Question: What about the log reduction ([3]; 0.01%) of the same molecule?
Answer: 0.1

Question: What about the Log ([3]; 0.1%) of the same molecule?
Answer: 6.1

Question: And the cfu/ml ([3]; 0.1%)?
Answer: 1.4E+06 cfu/ml

Question: What about the log reduction ([3]; 0.1%) of the same molecule?
Answer: 0.1

Question: And the Log ([3]; 1% w/v)?
Answer: 6.2

Question: What about the cfu/ml ([3]; 1% w/v) of the same molecule?
Answer: 1.5E+06 cfu/ml

Question: And the log reduction ([3]; 1% w/v)?
Answer: 0.0

Question: What about the “antimicrobial efficacy, conclusion” value ([3]; at 0.1%, 0.01% or 0.001%) of the same molecule?
Answer: Neither form was efficacious

Question: What about the Log ([4]; 0.1%) of the same molecule?
Answer: 5.5

Question: And the cfu/ml ([4]; 0.1%)?
Answer: 3.2E+05 cfu/ml

Question: What about the log reduction ([4]; 0.1%) of the same molecule?
Answer: −0.1

Question: What about the Log ([4]; 1%) of the same molecule?
Answer: 5.3

Question: And the cfu/ml ([4]; 1%)?
Answer: 2.0E+05 cfu/ml

Question: And the log reduction ([4]; 1%)?
Answer: 0.1

Question: And the Log ([4]; 5%)?
Answer: 5.5

Question: What about the cfu/ml ([4]; 5%) of the same molecule?
Answer: 2.9E+05 cfu/ml

Question: What about the log reduction ([4]; 5%) of the same molecule?
Answer: −0.1

Question: What about the Log ([4]; 10%) of the same molecule?
Answer: 5.4

Question: And the cfu/ml ([4]; 10%)?
Answer: 2.8E+05 cfu/ml

Question: What about the log reduction ([4]; 10%) of the same molecule?
Answer: 0.0

Question: And the “antimicrobial efficacy, conclusion” value ([4]; at 1% or 0.01%)?
Answer: Neither was efficacious

Question: What about the “IL-8 release vs untreated control cells in presence of IL-22 (FIG. 1)” value ([5]; 0.01% up to 3%, IL-22 20 ng/ml, 24 hrs) of the same molecule?
Answer: did induce significantly the stimulation of the pro-inflammatory cytokine IL-8

Question: What about the “anti-inflammatory potential in human primary epidermal cells in vitro” value ([5]; composition, measured per procedure of the Examples) of the same molecule?
Answer: greater than 220 pg/ml

Question: What about the “stimulation of pro-inflammatory cytokine IL-1α (FIG. 2)” value ([6]; topical 0.1%, 1% and 10% in 70% ethanol/30% propylene glycol, 48 hours) of the same molecule?
Answer: did induce the stimulation of the pro-inflammatory cytokine IL-1α in a dose-dependent manner

Question: And the “stimulation of pro-inflammatory cytokine IL-8 vs untreated control cells (FIG. 3)” value (IL-8 cytokine release; 0.01% up to 3%, 24 hours, no IL-22)?
Answer: did induce significantly the stimulation of the pro-inflammatory biomarker cytokine IL-8

Question: Which “stimulation of pro-inflammatory cytokine IL-1α (FIG. 2)” value [6] does the source give for Polymeric Sulfur [Sn] here?
Answer: did not induce the production of IL-1α to the same extent

Question: And the “stimulation of pro-inflammatory cytokine IL-8 vs untreated control cells (FIG. 3)” value (IL-8 cytokine release)?
Answer: showed significantly lower stimulation of the pro-inflammatory cytokine IL-8

— patent US10238685B2, “Compositions containing polymeric sulfur and uses thereof” (Johnson & Johnson Consumer Inc., priority 2015, dated 2019)
